Laboratory results taken from patent US9113629B2, “4-amino-6-(4-substituted-phenyl)-picolinates and 6-amino-2-(4-substituted-phenyl)-pyrimidine-4-carboxylates and their use as herbicides” (DOW AGROSCIENCES LLC, priority 2013, dated 2015).
Read-outs that look alike come from different tables or passages of the source.

Experiments:
[1] = system: Key Broadleaf Weed and Crop Species; assay: Post-emergent Test II herbicidal activity (Table 5); assay type: in vivo; conditions: post-emergence, 336 h, post-emergent, 14 days after application; for pest or weed control at 70 g/ha: application rate 70 g ai/ha; for pest or weed control at 140 g/ha: application rate 140 g ai/ha
Method in brief: (§1)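 Test species were raised 7–21 d under greenhouse conditions until reaching the first or second true leaf, sprayed with formulated compound at 187 L/ha, and kept subirrigated to avoid wash-off. Fourteen days later, damage was rated visually on a 0–100% scale against untreated plants.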

[2] = system: Key Grass and Sedge Weeds as well as Grass Crops; assay: Post-emergent Test II herbicidal activity (Table 6); assay type: in vivo; conditions: post-emergence, 336 h; for pest or weed control at 70 g/ha: application rate 70 g ai/ha; for pest or weed control at 140 g/ha: application rate 140 g ai/ha
Method in brief: as §1

[3] = ABUTH: velvetleaf (Abutilon theophrasti), read-out: Visual Growth Reduction (%) 14 Days After Application, ABUTH
[4] = AMARE: redroot pigweed (Amaranthus retroflexus), read-out: Visual Growth Reduction (%) 14 Days After Application, AMARE
[5] = BRSNN: oilseed-rape, canola (Brassica napus), read-out: Visual Growth Reduction (%) 14 Days After Application, BRSNN
[6] = CHEAL: lambsquarters (Chenopodium album), read-out: Visual Growth Reduction (%) 14 Days After Application, CHEAL
[7] = EPHHL: wild poinsettia (Euphorbia heterophylla), read-out: Visual Growth Reduction (%) 14 Days After Application, EPHHL
[8] = HELAN: sunflower (Helianthus annuus), read-out: Visual Growth Reduction (%) 14 Days After Application, HELAN
[9] = VIOTR: wild pansy (Viola tricolor), read-out: Visual Growth Reduction (%) 14 Days After Application, VIOTR
[10] = CYPES: yellow nutsedge (Cyperus esculentus), read-out: Visual Growth Reduction (%) 14 Days After Application, CYPES
[11] = DIGSA: crabgrass (Digitaria sanguinalis), read-out: Visual Growth Reduction (%) 14 Days After Application, DIGSA
[12] = ECHCG: barnyardgrass (Echinochloa crus-galli), read-out: Visual Growth Reduction (%) 14 Days After Application, ECHCG
[13] = ORYSA: rice (Oryza sativa), read-out: Visual Growth Reduction (%) 14 Days After Application, ORYSA
[14] = SETFA: giant foxtail (Setaria faberi), read-out: Visual Growth Reduction (%) 14 Days After Application, SETFA
[15] = SORVU: grain sorghum (Sorghum vulgare), read-out: Visual Growth Reduction (%) 14 Days After Application, SORVU
[16] = TRZSS (wheat, Triticum aestivum), read-out: Visual Growth Reduction (%) 14 Days After Application, TRZSS
[17] = ZEAMX: maize, corn (Zea mays), read-out: Visual Growth Reduction (%) 14 Days After Application, ZEAMX

SMILES	pest or weed control at 70 g/ha [1, 3] [%]	pest or weed control at 140 g/ha [1, 3] [%]	pest or weed control at 70 g/ha [1, 4] [%]	pest or weed control at 140 g/ha [1, 4] [%]	pest or weed control at 70 g/ha [1, 5] [%]	pest or weed control at 140 g/ha [1, 5] [%]	pest or weed control at 70 g/ha [1, 6] [%]	pest or weed control at 140 g/ha [1, 6] [%]	pest or weed control at 70 g/ha [1, 7] [%]	pest or weed control at 140 g/ha [1, 7] [%]	pest or weed control at 70 g/ha [1, 8] [%]	pest or weed control at 140 g/ha [1, 8] [%]	pest or weed control at 70 g/ha [1, 9] [%]	pest or weed control at 140 g/ha [1, 9] [%]	pest or weed control at 70 g/ha [2, 10] [%]	pest or weed control at 140 g/ha [2, 10] [%]	pest or weed control at 70 g/ha [2, 11] [%]	pest or weed control at 140 g/ha [2, 11] [%]	pest or weed control at 70 g/ha [2, 12] [%]	pest or weed control at 140 g/ha [2, 12] [%]	also measured
COC(=O)c1nc(-c2cc(F)c(C)cc2F)nc(N)c1OC [Compound 185]	30 to 44	45 to 59	0 to 29	0 to 29	30 to 44	45 to 59	60 to 74	95 to 100	75 to 84	85 to 94	75 to 84	85 to 94	0 to 29	0 to 29	0 to 29	0 to 29	0 to 29	0 to 29	0 to 29	0 to 29	pest or weed control at 70 g/ha [2, 13]: 0 to 29%; pest or weed control at 140 g/ha [2, 13]: 0 to 29%; pest or weed control at 70 g/ha [2, 14]: 0 to 29%; pest or weed control at 140 g/ha [2, 14]: 0 to 29%; pest or weed control at 70 g/ha [2, 15]: 0 to 29%; pest or weed control at 140 g/ha [2, 15]: 0 to 29%; pest or weed control at 70 g/ha [2, 16]: 0 to 29%; pest or weed control at 140 g/ha [2, 16]: 0 to 29%; pest or weed control at 70 g/ha [2, 17]: 0 to 29%; pest or weed control at 140 g/ha [2, 17]: 0 to 29%; melting point: 163.4 to 164.8 °C
Nc1cc(-c2cc(F)c(C(F)F)cc2F)nc(C(=O)O)c1Cl [Compound 174]	75 to 84	75 to 84	95 to 100	95 to 100	95 to 100	95 to 100	95 to 100	95 to 100	95 to 100	95 to 100	95 to 100	95 to 100	45 to 59	60 to 74	60 to 74	85 to 94	0 to 29	45 to 59	60 to 74	85 to 94	pest or weed control at 70 g/ha [2, 13]: 0 to 29%; pest or weed control at 140 g/ha [2, 13]: 0 to 29%; pest or weed control at 70 g/ha [2, 14]: 0 to 29%; pest or weed control at 140 g/ha [2, 14]: 45 to 59%; pest or weed control at 70 g/ha [2, 15]: 0 to 29%; pest or weed control at 140 g/ha [2, 15]: 0 to 29%; pest or weed control at 70 g/ha [2, 16]: 0 to 29%; pest or weed control at 140 g/ha [2, 16]: 0 to 29%; pest or weed control at 70 g/ha [2, 17]: 0 to 29%; pest or weed control at 140 g/ha [2, 17]: 0 to 29%; melting point: 171.8 to 173.9 °C
